Measured values: patent US10683310B2, “Compound for specifically binding to amyloid β-protein” (NEUBORON MEDTECH LTD., priority 2015, dated 2020)

How the values were obtained:
[1] = test system: amyloid β-protein deposition plaques; test: Micro-PET scan of brain uptake in SAMP8 model mice and control mice; type: in vivo; conditions: for Cerebral cortex uptake of radiopharmaceuticals, Model mice / hippocampus uptake of radiopharmaceuticals, Model mice: SAMP8 model mice; for Cerebral cortex uptake of radiopharmaceuticals, Control mice / hippocampus uptake of radiopharmaceuticals, Control mice: normal control mice
Procedure: SAMP8 (senescence accelerated mouse prone 8) mice are the most common animal model of AD (Alzheimer's disease), in its brain there are a large number of amyloid deposition plaque. In this example, SAMP8 mice were used as model mice, and the normal mice were used as the control mice. Both the model mice and the control mice were 10 months old. The two mice were injected with 6-borono-2-(4-methylaminophenyl)benzothiazole containing labeling, and the Micro-PET scan is used to study whether 6-borono-2-(4-methylaminophenyl)benzothiazole and amyloid β-protein have specific binding properties. Model mice and control mice weighing 31.5±0.3 g were selected, 31.0±0.6 μCi of ^11C labelled 6-borono-2-(4-methylaminophenyl)benzothiazole were injected thereto, and Micro-PET of Model INVEON from Siemens were used for scan, where the scanning window was 350-650 KeV.
It is well known to those skilled in the art that the major cause of Alzheimer's disease is that the amyloid β-protein deposition plaques accumulate in the cerebral cortex and hippocampus of the brain. In this example, Micro-PET scanned and compared the brains of the model and control mice using PMOD software. And the absorption of radioactive 6-borono-2-(4-methylaminophenyl)benzothiazole in the cerebral cortex and hippocampus of SAMP8 model mice and control mice was determined, to further illustrate that the compound is capable of specifically binding to amyloid β-protein deposition plaques.

[2] = stability in vitro of 11C-labeled compound determined by HPLC; type: physicochemical
Procedure: The stability of IIC-labeled 6-borono-2-(4-methylaminophenyl)benzothiazole in vitro was determined by HPLC, at selected time of 30 min and 60 min. […] Therefore, the radioactive chemical purity of the IIC-labeled radioactive compound met the experimental requirements.

CNc1ccc(-c2nc3ccc(B(O)O)cc3s2)cc1 [6-borono-2-(4-methylaminophenyl)benzothiazole]
Cerebral cortex uptake Ratio (model mice/control mice) ([1]; 5 min after injection): 1.9 | hippocampus uptake Ratio (model mice/control mice) ([1]; 5 min after injection): 1.9 | Cerebral cortex uptake Ratio (model mice/control mice) ([1]; 15 min after injection): 1.9 | hippocampus uptake Ratio (model mice/control mice) ([1]; 15 min after injection): 2.3 | Cerebral cortex uptake Ratio (model mice/control mice) ([1]; 25 min after injection): 2.4 | hippocampus uptake Ratio (model mice/control mice) ([1]; 25 min after injection): 3.2 | Cerebral cortex uptake Ratio (model mice/control mice) ([1]; 35 min after injection): 2.7 | hippocampus uptake Ratio (model mice/control mice) ([1]; 35 min after injection): 3.2 | Cerebral cortex uptake of radiopharmaceuticals, Model mice ([1]; 5 min after injection): 3.03 % ID/g | hippocampus uptake of radiopharmaceuticals, Model mice ([1]; 5 min after injection): 3.44 % ID/g | Cerebral cortex uptake of radiopharmaceuticals, Model mice ([1]; 15 min after injection): 2.88 % ID/g | hippocampus uptake of radiopharmaceuticals, Model mice ([1]; 15 min after injection): 3.50 % ID/g | Cerebral cortex uptake of radiopharmaceuticals, Model mice ([1]; 25 min after injection): 2.79 % ID/g | hippocampus uptake of radiopharmaceuticals, Model mice ([1]; 25 min after injection): 3.45 % ID/g | Cerebral cortex uptake of radiopharmaceuticals, Model mice ([1]; 35 min after injection): 2.68 % ID/g | hippocampus uptake of radiopharmaceuticals, Model mice ([1]; 35 min after injection): 3.27 % ID/g | brain radiopharmaceutical absorption (PET image) ([1]; SAMP8 model mouse versus control mice, 30 min after injection, FIGS. 5A and 5B): accumulated a large amount of radiopharmaceuticals relative to the brain of the control mice | Cerebral cortex uptake of radiopharmaceuticals, Control mice ([1]; 5 min after injection): 1.61 % ID/g | hippocampus uptake of radiopharmaceuticals, Control mice ([1]; 5 min after injection): 1.80 % ID/g | Cerebral cortex uptake of radiopharmaceuticals, Control mice ([1]; 15 min after injection): 1.48 % ID/g | hippocampus uptake of radiopharmaceuticals, Control mice ([1]; 15 min after injection): 1.49 % ID/g | Cerebral cortex uptake of radiopharmaceuticals, Control mice ([1]; 25 min after injection): 1.17 % ID/g | hippocampus uptake of radiopharmaceuticals, Control mice ([1]; 25 min after injection): 1.09 % ID/g | Cerebral cortex uptake of radiopharmaceuticals, Control mice ([1]; 35 min after injection): 0.99 % ID/g | hippocampus uptake of radiopharmaceuticals, Control mice ([1]; 35 min after injection): 1.01 % ID/g | radioactive chemical purity (stability in vitro) ([2]; 30 min): 100% | radioactive chemical purity (stability in vitro) ([2]; 60 min): 100%
